Reference: patent US10071089B2 (Euro-Celtique S.A., priority 2013, dated 2018)

What was measured:
[1] = tested on: male C57BL/6 RAG1-/- knockout mice; assay: Charcoal test of intestinal motility (GI transit); assay type: in vivo; details: charcoal meal; oral gavage three times a day for 7 days and once on 8th day; Oxy 10 mg/kg, Oxy/Nal 10/5.0 mg/kg
Description: Male mice of the strain C57BL/6 RAG −/− (Taconic Model 4175-M, Taconic Laboratories) with an approximal weight at arrival of 20±7 g at an approximal age of 5 to 10 weeks were used in the present study.
The formulations were prepared on Day 0 and used for Day 1 to Day 8 dosing. Sterile water was used as vehicle. Each of the two dose formulations was transferred into eight individual sterile vials through sterilization filters, one designated for each day of dosing. The dose formulations were stored refrigerated and protected from light.
Animals were administered the dose by oral gavage three times a day (˜4 hours apart) for 7 days and once on the 8th day. Prior to the first dose administration of the day, the dose formulation vials designated for that day were removed from the refrigerator, briefly mixed, and allowed to come to room temperature, where the vials remained throughout the day. After the third dose on day 7, all animals fasted through euthanasia. The dose volume was based on the animal's body weight on Day 1. Dose volume was recorded. […]
Thirty minutes after charcoal delivery, animals were euthanized by an overdose of CO2. […] Its full length and the length of charcoal meal traveled were measured in centimeters. Intestinal transit was expressed as the percentage of intestine length containing the meal, i.e. 100×(pylorus to meal front/pylorus to caecum length). […]

[2] = Body weights over 7 days of dosing; assay type: in vivo, mice; details: 10 mg/kg oxycodone or 10 mg/kg oxycodone/5 mg/kg naloxone, oral gavage
Description: Animals were administered the dose by oral gavage three times a day (˜4 hours apart) for 7 days and once on the 8th day. Prior to the first dose administration of the day, the dose formulation vials designated for that day were removed from the refrigerator, briefly mixed, and allowed to come to room temperature, where the vials remained throughout the day. After the third dose on day 7, all animals fasted through euthanasia. The dose volume was based on the animal's body weight on Day 1. Dose volume was recorded.
Individual body weights were recorded prior to administration of the first dose on Day 1. The body weight determinations prior to Day 1 dose administration was used to determine the dose administered for all subsequent doses. Subsequent body weights were recorded daily after the 2nd dose of the day on Days 2 through 7.

[3] = tested on: bacteria in the mesenteric lymph nodes; assay: Colony forming units in mesenteric lymph nodes (bacterial translocation); assay type: in vivo, mice; details: blood and BHI agar; aerobic, anaerobic, CO2; G6 oxycodone, G7 oxycodone/naloxone
Description: Following euthanasia, the abdomen was opened. The mesenteric root was presented and the mesenteric net unfolded. The mesenteric lymph nodes (MLNs) were removed and surrounding fat was removed. The MLNs were then weighed into sterilized tubes. Following weighing, the MLNs were frozen in liquid nitrogen. Following freezing, the MLNs were placed on dry ice prior to storage in a −70° C. freezer […].
MLNs were obtained as indicated above and the amount of bacteria in the MLNs was analyzed by determining colony forming units (CFUs) per g MLN in different media and under different conditions as indicated in FIG. 7. Contaminated samples were not taken into account (contaminated samples in the different groups: 1 in G1, 1 in G3, 2 in G6 and 3 in G7). The statistical analysis was performed using one way ANCOVA.

[4] = tested on: bacteria of different phyla in the small intestine; assay: Analysis of the contents of the small intestine (bacterial phyla)
Description: (§1) The small intestine, caecum, and colon were cut longitudinally. The contents of each were individually collected into separate containers with a small spatula or similar instrument, taking care to cause as little injury to the tissue as possible. The weight of the contents collected from each portion was recorded. The weights of the small intestine, caecum, and colon following removal of the contents were also recorded. Collected luminal contents samples were then frozen in liquid nitrogen. Luminal contents samples were then placed on dry ice before transfer to a −80° C. freezer.
The contents of the small intestine of the different groups were obtained as described above.

[5] = tested on: bacteria of different phyla in the colon; assay: Analysis of the colon contents (bacterial phyla); details: phylum levels, FIG. 9; G1 untreated, G3 vehicle, G6, G7
Description: as §1

[6] = small intestine, n=7 for G6, n=4 for G7

COc1ccc2c3c1O[C@H]1C(=O)CC[C@@]4(O)[C@@H](C2)N(C)CC[C@]314 [oxycodone]
reduction of GI transit compared to vehicle [1]: 67%
average percentage body weight loss [2]: 4.17%
CFUs in MLNs (bacterial translocation into mesenteric lymph nodes) [3]: Increased CFUs
bacterioides in small intestine, G6-group compared to G7-group ([4]; phylum levels, FIG. 8): clear decrease
proteobacteria in small intestine, G6-group compared to G7-group ([4]; phylum levels, FIG. 8): clear increase
mice with completely (dramatically) altered small intestine microbiome composition [4, 6]: 2/7
mice with pathogenic populations such as proteobacteria in small intestine [4, 6]: 5/7
proteobacteria in colon compared to the remaining groups [5]: increase
